In patent US7361643B2, “Methods for inhibiting angiogenesis” (University of Puerto Rico, priority 2000, dated 2008):
Entries after “also recorded” stand apart in the source; their conditions may differ.

What was measured:
[1] = test system: bovine adrenal medullary microvascular endothelial cells; assay: Capillary endothelial cell growth and proliferation (cell count in hemacytometer); type: cell-based
Procedure: Cells in the amount of 2.0×10^4 were seeded per well in 24-well clusters in 1 ml complete EMEM containing 10% (v/v) serum and allowed to grow for 72 hours. Media were removed and the cells were washed twice with phosphate-buffer saline, pH 7.4 (PBS). Cells were synchronized by incubating for 48 hours in 2 mM hydroxyurea in serum-free EMEM with glutamine (2 mM) and one-third of penicillin-streptomycin used in a regular culture condition, followed by incubating 24 hours in serum-free EMEM, as discussed in CAO et al., “Modified Method of Mammalian Cell Synchronization Improves Yield and Degree of Synchronization”, Exp. Cell Res., 193:405-410 (1991), the disclosure of which is herein incorporated by reference in its entirety.
(§1) For proliferation assay, cells were trypsinized and counted in a hemacytometer. Viability of cells was determined by trypan blue (0.4% (v/v)) exclusion. Statistical analysis was carried out by StatView II software (Macintosh). Quantitation of cellular differentiation was carried out by observing under a Nikon AlphaShot inverted microscope, and counting the number of capillary lumen-like structures in five randomly selected fields per sample.
Synchronized cells, as described in Example 1, were cultured at 37° C. in complete EMEM containing fetal bovine serum (1% (v/v), 2% (v/v), or 10% (v/v), or complete EMEM with 2% (v/v) fetal bovine serum containing 1 ng/ml −100 ng/ml of bFGF/FGF-2, or containing 0.5 μg/ml to 5.0 μg/ml tunicamycin (lot number 10922120-07 from Boehringer-Mannheim, Indianapolis, Ind.). In each case, the cellular growth and proliferation was monitored by trypan blue exclusion, by counting the cell number, and by their ability to process through the cell cycle by flow cytometry.
Proliferation and Differentiation of Capillary Endothelial Cells: 2.0×10^4 cells were seeded per well in 24-well clusters in 1 ml complete EMEM containing 10% (v/v) serum and allowed to grow for 72 hours. Media were removed and the cells were washed twice with phosphate-buffer saline, pH 7.4 (PBS). […] Cells were routinely monitored by light microscopy. For proliferation assay, cells were trypsinized and counted in a hemacytometer. Viability of cells was determined by trypan blue (0.4% (v/v)) exclusion. […] Quantitation of cellular differentiation was carried out by observing under a Nikon AlphaShot inverted microscope, and counting the number of capillary lumen-like structures in five randomly selected fields per sample. The results were expressed as percent of its corresponding control after normalization of cell numbers. Analysis of Cell Cycle by Flow Cytometry: Assessment of the cell cycle was determined by propidium iodide staining of fixed cell nuclei followed by flow cytometry in a FacSort (Beckton Dickinson) according to the method of Krishan (1975) as modified by Vindelov (1977), as discussed in KRISHAN, “Rapid Flow Cytometric Analysis of Mammalian Cell Cycle by Propidium Iodide Staining”, J. Cell Biol. 66:188-195 (1975); and VINDELOV, “Flow Cytometric Analysis of Nuclear DNA in Cells from Solid Tumors and Cell Suspensions”, Virchows Arch (B), 24:227-231 (1977), the disclosures of which are herein incorporated by reference in their entireties. […]

[2] = test system: bovine adrenal medullary microvascular endothelial cells; assay: Cell viability by trypan blue exclusion; type: cell-based; conditions: under tunicamycin exposure (0.5-5.0 μg/ml, 32 hours)
Procedure: as §1
Proliferation and Differentiation of Capillary Endothelial Cells: 2.0×10^4 cells were seeded per well in 24-well clusters in 1 ml complete EMEM containing 10% (v/v) serum and allowed to grow for 72 hours. Media were removed and the cells were washed twice with phosphate-buffer saline, pH 7.4 (PBS). […] Cells were routinely monitored by light microscopy. For proliferation assay, cells were trypsinized and counted in a hemacytometer. Viability of cells was determined by trypan blue (0.4% (v/v)) exclusion. […] Quantitation of cellular differentiation was carried out by observing under a Nikon AlphaShot inverted microscope, and counting the number of capillary lumen-like structures in five randomly selected fields per sample. The results were expressed as percent of its corresponding control after normalization of cell numbers. […] After FacSort calibration, 3000 events were counted per sample. […]

Question: With tunicamycin as the substance, how does the “effect on cell number / proliferation” value ([1]; 1 μg/ml tunicamycin, 2% (v/v) serum, monitored up to 5 days) read?
Answer: reduced the cell proliferation; also recorded: number of cells started declining; also recorded: started declining, and almost disappeared

Question: What about the “reversibility of growth reduction” value ([1]; tunicamycin 0.5-5.0 μg/ml) of the same substance?
Answer: reversible

Question: And the “total adherent cells viable” value [2]?
Answer: more than 70%
